# Reference: patent US12195505B2, “Treatment of cystic fibrosis by delivery of nebulized mRNA encoding CFTR” (Translate Bio, Inc., priority 2018, dated 2025)
# Tested on: human bronchial epithelial cells
# Test: Ussing chamber assay, Forskolin-induced chloride channel activity
# Type: cell-based
# Details: added after current measurement, all groups
# Description: The changes in chloride transport across the bronchial epithelial cell membrane was measured by short circuit current output in a Ussing epithelial voltage clamp apparatus (i.e., a Ussing chamber). Specifically, using an established Ussing Chamber procedure (Charles River Laboratories), hCFTR mRNA encapsulated in a liposome comprising ICE, DOPE, and a PEG-modified lipid was incubated for 2 or 4 hours on the apical (mucosal) or basolateral (serosal) sides, or both sides, of human bronchial epithelial cells. A buffer blank also was included as a control, for example, to assess chloride transport by endogenous CFTR in the cells. Next, Forskolin-induced chloride channel activity was measured using the Ussing chamber assay.
compound,measurement,value
O=C(O)c1ccc(/C=C2\SC(=S)N(c3cccc(C(F)(F)F)c3)C2=O)cc1 [CFTR inhibitor-172],Effect on chloride activity in Ussing chamber,inhibited
